Converted amounts (≈) assume the structure as drawn.
Experiments:
Assay type in all cases: functional
[1] = test system: Cryptococcus neoformans; assay: Antifungal activity against Cryptococcus neoformans after 72 hrs by broth microdilution method
[2] = test system: Trichophyton rubrum; assay: Antifungal activity against Trichophyton rubrum after 7 days by broth microdilution method; conditions: 168 h
[3] = test system: Trichophyton mentagrophytes; assay: Antifungal activity against Trichophyton mentagrophytes after 7 days by broth microdilution method; conditions: 168 h
[4] = test system: Cryptococcus neoformans; assay: Antifungal activity against Cryptococcus neoformans assessed as fungal growth at 0.125 ug/ml after 72 hrs by broth microdilution method
[5] = test system: Trichophyton mentagrophytes; assay: Antifungal activity against Trichophyton mentagrophytes assessed as fungal growth at 0.25 ug/ml after 7 days by broth microdilution method
[6] = test system: Trichophyton rubrum; assay: Antifungal activity against Trichophyton rubrum assessed as fungal growth at 0.25 ug/ml after 7 days by broth microdilution method

| Compound | MIC50 [1] | MIC80 [1] | MIC50 [2] | MIC80 [2] | MIC50 [3] | MIC80 [3] | Activity [4] | Activity [5] | Activity [6] |
| --- | --- | --- | --- | --- | --- | --- | --- | --- | --- |
| C[C@@H](c1cccc2ccccc12)N(C)Cc1ccc(C(C)(C)C)cc1 | 1 µg/mL (≈ 3.02 µM) | 2 µg/mL (≈ 6.03 µM) | – | – | – | – | – | – | – |
| C[C@H](c1cccc2ccccc12)N(C)Cc1ccncc1 | 16 µg/mL (≈ 57.9 µM) | > 32 µg/mL | – | – | – | – | – | – | – |
| C[C@H](c1cccc2ccccc12)N(C)Cc1ccc(-c2ccccc2)cc1 | > 16 µg/mL | > 32 µg/mL | – | – | – | – | – | – | – |
| COc1ccc(CN(C)[C@H](C)c2cccc3ccccc23)cc1 | 2 µg/mL (≈ 6.55 µM) | 4 µg/mL (≈ 13.1 µM) | 1 µg/mL (≈ 3.27 µM) | 2 µg/mL (≈ 6.55 µM) | 1 µg/mL (≈ 3.27 µM) | 2 µg/mL (≈ 6.55 µM) | – | – | – |
| CN(Cc1ccc(C(C)(C)C)cc1)Cc1cccc2ccccc12 [BUTENAFINE] | 0.5 µg/mL (≈ 1.57 µM) | 1 µg/mL (≈ 3.15 µM) | 0.03 µg/mL (≈ 0.0945 µM) | 0.06 µg/mL (≈ 0.189 µM) | 0.06 µg/mL (≈ 0.189 µM) | 0.125 µg/mL (≈ 0.394 µM) | – | – | – |
| C[C@H](c1cccc2ccccc12)N(C)Cc1ccc(C(C)(C)C)cc1 | – | 0.25 µg/mL (≈ 0.754 µM) | 0.06 µg/mL (≈ 0.181 µM) | 0.125 µg/mL (≈ 0.377 µM) | 0.06 µg/mL (≈ 0.181 µM) | 0.125 µg/mL (≈ 0.377 µM) | >50% | – | – |
| C[C@H](c1cccc2ccccc12)N(C)Cc1cccc(C(F)(F)F)c1 | 4 µg/mL (≈ 11.6 µM) | 8 µg/mL (≈ 23.3 µM) | 2 µg/mL (≈ 5.82 µM) | 4 µg/mL (≈ 11.6 µM) | 4 µg/mL (≈ 11.6 µM) | > 32 µg/mL | – | – | – |
| C[C@H](c1ccc(C(C)(C)C)cc1)N(C)Cc1cccc2ccccc12 | > 32 µg/mL | > 32 µg/mL | > 32 µg/mL | > 32 µg/mL | > 32 µg/mL | > 32 µg/mL | – | – | – |
| C[C@H](c1cccc2ccccc12)N(C)Cc1ccc(C(F)(F)F)cc1 | 0.5 µg/mL (≈ 1.46 µM) | 1 µg/mL (≈ 2.91 µM) | 0.25 µg/mL (≈ 0.728 µM) | 0.5 µg/mL (≈ 1.46 µM) | 0.25 µg/mL (≈ 0.728 µM) | 0.5 µg/mL (≈ 1.46 µM) | – | – | – |
| C[C@H](c1cccc2ccccc12)N(C)Cc1ccccc1-c1ccccc1 | > 32 µg/mL | > 32 µg/mL | – | – | – | – | – | – | – |
| C[C@H](c1cccc2ccccc12)N(C)Cc1cccnc1 | > 32 µg/mL | > 32 µg/mL | – | – | – | – | – | – | – |
| CN(Cc1cccc2ccccc12)[C@@H](CF)c1ccc(C(C)(C)C)cc1 | > 32 µg/mL | > 32 µg/mL | > 32 µg/mL | > 32 µg/mL | > 32 µg/mL | > 32 µg/mL | – | – | – |
| C[C@H](c1cccc2ccccc12)N(C)Cc1ccc(F)cc1 | 4 µg/mL (≈ 13.6 µM) | 8 µg/mL (≈ 27.3 µM) | – | – | – | – | – | – | – |
| Cc1cc(C(C)(C)C)cc(C)c1CN(C)[C@H](C)c1cccc2ccccc12 | 1 µg/mL (≈ 2.78 µM) | 32 µg/mL (≈ 89 µM) | > 32 µg/mL | > 32 µg/mL | > 32 µg/mL | > 32 µg/mL | – | – | – |
| C[C@H](c1cccc2ccccc12)N(C)Cc1ccccc1C(F)(F)F | > 32 µg/mL | > 32 µg/mL | – | – | – | – | – | – | – |
| C[C@H](c1cccc2ccccc12)N(C)Cc1ccc(Br)cc1 | 0.5 µg/mL (≈ 1.41 µM) | 1 µg/mL (≈ 2.82 µM) | 0.125 µg/mL (≈ 0.353 µM) | 0.25 µg/mL (≈ 0.706 µM) | 0.25 µg/mL (≈ 0.706 µM) | 0.5 µg/mL (≈ 1.41 µM) | – | – | – |
| Cc1ccc(CN(C)[C@H](C)c2cccc3ccccc23)cc1 | 0.5 µg/mL (≈ 1.73 µM) | 1 µg/mL (≈ 3.46 µM) | 0.25 µg/mL (≈ 0.864 µM) | 0.5 µg/mL (≈ 1.73 µM) | 0.25 µg/mL (≈ 0.864 µM) | 0.5 µg/mL (≈ 1.73 µM) | – | – | – |

| Compound | MIC50 [1] | MIC80 [1] | MIC50 [2] | MIC80 [2] | MIC50 [3] | MIC80 [3] | Activity [4] | Activity [5] | Activity [6] |
| --- | --- | --- | --- | --- | --- | --- | --- | --- | --- |
| CC(C)(C)c1ccc([C@H](CF)NCc2cccc3ccccc23)cc1 | > 32 µg/mL | > 32 µg/mL | 2 µg/mL (≈ 5.96 µM) | 4 µg/mL (≈ 11.9 µM) | 2 µg/mL (≈ 5.96 µM) | 4 µg/mL (≈ 11.9 µM) | – | – | – |
| C[C@H](c1cccc2ccccc12)N(C)Cc1ccccc1Br | > 32 µg/mL | > 32 µg/mL | – | – | – | – | – | – | – |
| C[C@@H](c1ccc(C(C)(C)C)cc1)N(C)Cc1cccc2ccccc12 | 2 µg/mL (≈ 6.03 µM) | 4 µg/mL (≈ 12.1 µM) | 0.5 µg/mL (≈ 1.51 µM) | 1 µg/mL (≈ 3.02 µM) | 0.5 µg/mL (≈ 1.51 µM) | 1 µg/mL (≈ 3.02 µM) | – | – | – |
| C[C@H](c1cccc2ccccc12)N(C)Cc1cc(C(C)(C)C)cc(C(C)(C)C)c1 | 32 µg/mL (≈ 82.6 µM) | > 32 µg/mL | – | – | – | – | – | – | – |
| C[C@H](c1cccc2ccccc12)N(C)Cc1cccc(Br)c1 | 4 µg/mL (≈ 11.3 µM) | 8 µg/mL (≈ 22.6 µM) | 1 µg/mL (≈ 2.82 µM) | 2 µg/mL (≈ 5.65 µM) | 2 µg/mL (≈ 5.65 µM) | 4 µg/mL (≈ 11.3 µM) | – | – | – |
| C[C@H](c1cccc2ccccc12)N(C)Cc1ccccc1F | > 32 µg/mL | > 32 µg/mL | – | – | – | – | – | – | – |
| C[C@H](c1cccc2ccccc12)N(C)Cc1ccccn1 | > 32 µg/mL | > 32 µg/mL | – | – | – | – | – | – | – |
| CC(C)(C)c1ccc([C@@H](CF)NCc2cccc3ccccc23)cc1 | > 32 µg/mL | > 32 µg/mL | > 32 µg/mL | > 32 µg/mL | > 32 µg/mL | > 32 µg/mL | – | – | – |
| CN(Cc1cccc2ccccc12)[C@H](CF)c1ccc(C(C)(C)C)cc1 | > 32 µg/mL | > 32 µg/mL | > 32 µg/mL | > 32 µg/mL | > 32 µg/mL | > 32 µg/mL | – | – | – |
| C[C@H](c1cccc2ccccc12)N(C)Cc1ccc(OCc2ccccc2)cc1 | 0.5 µg/mL (≈ 1.31 µM) | 1 µg/mL (≈ 2.62 µM) | 0.125 µg/mL (≈ 0.328 µM) | 0.25 µg/mL (≈ 0.655 µM) | 0.125 µg/mL (≈ 0.328 µM) | 0.25 µg/mL (≈ 0.655 µM) | – | – | – |
| C[C@H](c1cccc2ccccc12)N(C)Cc1ccc([N+](=O)[O-])cc1 | 2 µg/mL (≈ 6.24 µM) | > 16 µg/mL | 0.25 µg/mL (≈ 0.78 µM) | 0.5 µg/mL (≈ 1.56 µM) | 1 µg/mL (≈ 3.12 µM) | 2 µg/mL (≈ 6.24 µM) | – | – | – |
| C[C@H](c1cccc2ccccc12)N(C)Cc1ccc(OC(F)(F)F)cc1 | 2 µg/mL (≈ 5.56 µM) | 4 µg/mL (≈ 11.1 µM) | 0.5 µg/mL (≈ 1.39 µM) | 1 µg/mL (≈ 2.78 µM) | – | 0.5 µg/mL (≈ 1.39 µM) | – | >50% | – |
| C[C@@H]1[C@H](O)[C@@H](C)/C=C/C=C/C=C/C=C/C=C/C=C/C=C/[C@H](O[C@@H]2O[C@H](C)[C@@H](O)[C@H](N)[C@@H]2O)C[C@@H]2O[C@](O)(C[C@@H](O)C[C@@H](O)[C@H](O)CC[C@@H](O)C[C@@H](O)CC(=O)O[C@H]1C)C[C@H](O)[C@H]2C(=O)O [AMPHOTERICIN B] | 0.25 µg/mL (≈ 0.271 µM) | < 0.5 µg/mL | > 0.25 µg/mL | < 0.5 µg/mL | 0.5 µg/mL (≈ 0.541 µM) | < 1 µg/mL | – | – | – |
| C[C@H](c1cccc2ccccc12)N(C)Cc1ccccc1 | 16 µg/mL (≈ 58.1 µM) | > 16 µg/mL | – | – | – | – | – | – | – |
| C[C@H](c1cccc2ccccc12)N(C)Cc1cc(C(F)(F)F)cc(C(F)(F)F)c1 | > 32 µg/mL | > 32 µg/mL | – | – | – | – | – | – | – |
| C[C@H](c1cccc2ccccc12)N(C)Cc1ccc([Si](C)(C)C)cc1 | 0.5 µg/mL (≈ 1.44 µM) | 1 µg/mL (≈ 2.88 µM) | – | 0.5 µg/mL (≈ 1.44 µM) | – | 0.5 µg/mL (≈ 1.44 µM) | – | >50% | >50% |

Reference: ChEMBL document CHEMBL2424576, “Chiral N-benzyl-N-methyl-1-(naphthalen-1-yl)ethanamines and their in vitro antifungal activity against Cryptococcus neoformans, Trichophyton mentagrophytes and Trichophyton rubrum” (2013)
